Test results: patent US20240207292A1, “BORONIC ACID COMPOUNDS, COMPOSITIONS AND METHODS” (Trustees of Tufts College, priority 2021, published 2024)

What was measured:
[1] = Stability of 6555 with stabilizers over hours without AAPH (50 mM NH4OAc at RT or Ultrapura water at 40° C.); type: physicochemical
Source text: The effect of specified sulfur-containing compounds and other stabilizer compounds (including non-sulfur-containing stabilizer compounds) and mixtures of sulfur-containing compounds and non-sulfur-containing stabilizer compounds with the boronic acid compound 6555 (structure shown above) at various pH values.

[2] = target: recombinant human prolyl oligopeptidase (PREP) (Homo sapiens (Human), UniProt P48147); assay: In vitro assay prolyl oligopeptidase IC50 (Example 21); type: biochemical
recombinant human prolyl oligopeptidase (PREP), sequence (P48147 whole entry): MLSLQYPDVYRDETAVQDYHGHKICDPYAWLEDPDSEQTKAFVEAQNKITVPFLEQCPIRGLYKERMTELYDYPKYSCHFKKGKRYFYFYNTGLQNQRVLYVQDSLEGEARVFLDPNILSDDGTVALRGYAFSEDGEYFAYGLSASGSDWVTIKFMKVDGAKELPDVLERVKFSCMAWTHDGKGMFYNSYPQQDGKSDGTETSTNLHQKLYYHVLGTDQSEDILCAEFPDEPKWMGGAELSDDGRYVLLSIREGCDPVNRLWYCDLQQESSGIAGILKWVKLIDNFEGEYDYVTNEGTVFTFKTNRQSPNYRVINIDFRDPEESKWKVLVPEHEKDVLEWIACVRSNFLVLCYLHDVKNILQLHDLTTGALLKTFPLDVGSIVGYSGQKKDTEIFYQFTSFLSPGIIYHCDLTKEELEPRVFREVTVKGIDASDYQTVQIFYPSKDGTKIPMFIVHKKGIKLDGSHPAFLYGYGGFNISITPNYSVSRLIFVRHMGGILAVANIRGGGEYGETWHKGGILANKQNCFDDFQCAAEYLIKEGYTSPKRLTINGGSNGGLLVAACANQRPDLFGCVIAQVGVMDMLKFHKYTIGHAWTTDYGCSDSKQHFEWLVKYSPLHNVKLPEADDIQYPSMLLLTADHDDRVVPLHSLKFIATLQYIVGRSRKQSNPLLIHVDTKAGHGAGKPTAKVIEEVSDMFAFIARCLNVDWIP

recombinant human FAP = recombinant human FAP (Homo sapiens (Human), UniProt Q12884); assay: In vitro enzyme IC50 assay, FAP (Example 16); type: biochemical; conditions: 10 min preincubation at 25° C.; Z-Gly-Pro-AMC
recombinant human FAP, sequence (Q12884 whole entry): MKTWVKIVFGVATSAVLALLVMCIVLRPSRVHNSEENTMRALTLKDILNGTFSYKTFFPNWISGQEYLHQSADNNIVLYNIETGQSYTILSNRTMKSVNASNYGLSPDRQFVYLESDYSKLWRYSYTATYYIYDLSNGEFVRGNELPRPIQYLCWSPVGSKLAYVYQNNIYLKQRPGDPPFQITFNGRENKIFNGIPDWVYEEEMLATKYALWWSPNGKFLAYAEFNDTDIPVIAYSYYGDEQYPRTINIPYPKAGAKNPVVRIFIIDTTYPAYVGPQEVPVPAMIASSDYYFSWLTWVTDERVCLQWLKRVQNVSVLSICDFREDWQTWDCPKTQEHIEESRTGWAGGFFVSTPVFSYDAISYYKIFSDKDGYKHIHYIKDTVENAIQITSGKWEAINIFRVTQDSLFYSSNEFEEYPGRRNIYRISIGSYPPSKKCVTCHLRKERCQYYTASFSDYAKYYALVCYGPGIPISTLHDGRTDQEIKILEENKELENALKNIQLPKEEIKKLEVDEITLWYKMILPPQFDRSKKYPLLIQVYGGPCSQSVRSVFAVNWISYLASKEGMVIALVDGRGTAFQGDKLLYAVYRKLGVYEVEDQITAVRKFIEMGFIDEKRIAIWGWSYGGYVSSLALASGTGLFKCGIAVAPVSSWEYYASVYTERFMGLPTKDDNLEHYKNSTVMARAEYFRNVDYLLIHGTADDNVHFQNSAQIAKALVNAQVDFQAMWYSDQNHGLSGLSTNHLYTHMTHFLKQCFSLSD
Protocol: Biological Materials: For the in vitro IC50 determination assays, recombinant human DPPIV, DPP9, FAP, and PREP were purchased from R&D Systems, and DPP8 was from Biomol International. Buffer systems used were A (25 mM Tris, pH 8.0), B (50 mM Tris, pH 7.5), C (50 mM Tris, 140 mM NaCl, pH 7.5), D (25 mM Tris, 250 mM NaCl, pH 7.5), and E (20 mM Tris, 20 mM KCl, pH 7.4). […] Substrate Specificity Assay. Peptide libraries (0.21 mM) were incubated for 24 h with 1 nM FAP in buffer E at 37° C. The reaction was quenched by the addition of 1.2 N HCl. The samples were analyzed by reverse-phase HPLC-MS on a Thermo Finnigan LCQ Duo, quantifying the peaks in the resulting base peak chromatograms. Relative cleavage values were determined by comparing the postquench abundance of intact peptides to those in the initial library.
In Vitro Enzyme IC50 Assays. Enzymatic activity of DPPIV, DPP8, DPP9, FAP, and PREP was measured at 25° C. on a Molecular Devices M2e multidetection microtiter plate reader, monitoring the fluorescence at an excitation wavelength of 380 nm and an emission wavelength of 460 nm. The substrate was either H-Gly-Pro-AMC for the DPPIV, DPP8, and DPP9 assays or Z-Gly-Pro-AMC for the FAP and PREP assays. […] The final enzyme concentrations were 0.1, 0.8, 0.4, 1.2, and 0.6 nM for DPPIV, DPP8, DPP9, FAP, and PREP, respectively. […] Those prepared in pH 2.0 solution were preincubated at 25° C. for 4 h prior to dilution. Immediately prior to the commencement of the experiment, the 100 mM stocks were further diluted to 10^-3 M in the appropriate assay buffer, from which 1:10 serial dilutions were prepared. All inhibitors were tested in triplicate.

[3] = Effect of NAM on stability of 6522/6555 with 50 mM AAPH at 60° C. for 60 mins as a function of pH; type: physicochemical; conditions: 5 mM NAM and 50 mM AAPH
Protocol: Effect of […] N-acetyl methionine (NAM) on the stability of the compounds 6522 (6522 compound structure shown above) at 60° C. in the presence of AAPH 2,2′-azobis-(2-amidopropane)hydrochloride as a function of pH.
• Concentration: of 6522 2 mg/mL • Reaction condition: With 5 mM NAM and 50 mM AAPH, at 60° C. for 60 mins

[4] = Degradation in aqueous solution of pH about 3 during HPLC purification and lyophilization; conditions: during HPLC purification and subsequent lyophilization

6555 Remaining (%) ([1]; 50 mM NH4OAc, RT, 6 hr, (−) mode, no stabilizer, pH 5.4): 74.5%
6555 Remaining (%) ([1]; 50 mM NH4OAc, RT, 6 hr, (−) mode, sodium metabisulfite 5 mM, pH 5.1): 63.3%
6555 Remaining (%) ([1]; 50 mM NH4OAc, RT, 7 hr, (−) mode, sodium ascorbate 5 mM, sodium gentisate 2 mM, sodium metabisulfite 5 mM, disodium hydrosulfite 5 mM, pH 5.2): 77.4%
6555 Remaining (%) ([1]; 50 mM NH4OAc, RT, 7 hr, (−) mode, sodium metabisulfite 5 mM, disodium hydrosulfite 5 mM, pH 5.1): 66.9%
6555 Remaining (%) ([1]; 50 mM NH4OAc, RT, 8 hr, (−) mode, NAM 5 mM, sodium metabisulfite 5 mM, pH 4.9): 63.2%
6555 Remaining (%) ([1]; 50 mM NH4OAc, RT, 8 hr, (−) mode, sodium metabisulfite 25 mM, pH 4.2): 63.2%
6555 Remaining (%) ([1]; 50 mM NH4OAc, RT, 26 hr, (+) mode, no stabilizer, pH 5.4): 95.7%
6555 Remaining (%) ([1]; 50 mM NH4OAc, RT, 26 hr, (+) mode, sodium ascorbate 5 mM, sodium gentisate 2 mM, sodium metabisulfite 5 mM, disodium hydrosulfite 5 mM, pH 5.2): 96.7%
6555 Remaining (%) ([1]; 50 mM NH4OAc, RT, 31 hr, (−) mode, no stabilizer, pH 5.4): 82.2%
6555 Remaining (%) ([1]; 50 mM NH4OAc, RT, 31 hr, (−) mode, sodium ascorbate 5 mM, sodium gentisate 2 mM, sodium metabisulfite 5 mM, disodium hydrosulfite 5 mM, pH 5.2): 77.4%
6555 Remaining (%) ([1]; Ultrapura water, 40° C., 17 hr, (+) mode, no stabilizer, pH 5.2): 95.4%
6555 Remaining (%) ([1]; Ultrapura water, 40° C., 17 hr, (+) mode, sodium ascorbate 5 mM, sodium gentisate 2 mM, sodium metabisulfite 5 mM, disodium hydrosulfite 5 mM, pH 5): 96.1%
6555 Remaining (%) ([1]; Ultrapura water, 40° C., 18 hr, (+) mode, sodium ascorbate 5 mM, sodium gentisate 2 mM, NAM 5 mM, disodium hydrosulfite 5 mM, pH 5.0): 96.2%
6555 Remaining (%) ([1]; Ultrapura water, 40° C., 18 hr, (+) mode, sodium ascorbate 5 mM, sodium gentisate 2 mM, NAM 5 mM, sodium metabisulfite 5 mM, pH 5.1): 95.6%
6555 Remaining (%) ([1]; Ultrapura water, 40° C., 27 hr, (−) mode, sodium ascorbate 5 mM, sodium gentisate 2 mM, NAM 5 mM, disodium hydrosulfite 5 mM, pH 5.0): 85.3%
6555 Remaining (%) ([1]; Ultrapura water, 40° C., 27 hr, (−) mode, sodium ascorbate 5 mM, sodium gentisate 2 mM, NAM 5 mM, sodium metabisulfite 5 mM, pH 5.1): 92.8%
6555 Remaining (%) ([1]; Ultrapura water, 40° C., 28 hr, (−) mode, no stabilizer, pH 5.2): 83.7%
6555 Remaining (%) ([1]; Ultrapura water, 40° C., 28 hr, (−) mode, sodium ascorbate 5 mM, sodium gentisate 2 mM, sodium metabisulfite 5 mM, disodium hydrosulfite 5 mM, pH 5.0): 82.9%
6555 Remain (%) ([1]; mM: ascorbate 0, gentisate 0, NAM 0, metabisulfite 0, hydrosulfite 0, pH 5.2, 17 hrs, SID 90754): 95.4%
6555 Remain (%) ([1]; mM: ascorbate 0, gentisate 0, NAM 0, metabisulfite 0, hydrosulfite 0, pH 5.2, 28 hrs, SID 90768): 83.7%
6555 Remain (%) ([1]; mM: ascorbate 0, gentisate 0, NAM 0, metabisulfite 0, hydrosulfite 0, pH 5.4, 6 hrs, SID 90779): 74.5%
6555 Remain (%) ([1]; mM: ascorbate 0, gentisate 0, NAM 0, metabisulfite 0, hydrosulfite 0, pH 5.4, 26 hrs, SID 90844): 95.7%
6555 Remain (%) ([1]; mM: ascorbate 0, gentisate 0, NAM 0, metabisulfite 0, hydrosulfite 0, pH 5.4, 31 hrs, SID 90853): 82.2%
6555 Remain (%) ([1]; mM: ascorbate 0, gentisate 0, NAM 0, metabisulfite 5, hydrosulfite 0, pH 4.9, 8 hrs, SID 90787): 63.2%
6555 Remain (%) ([1]; mM: ascorbate 0, gentisate 0, NAM 0, metabisulfite 5, hydrosulfite 0, pH 5.1, 6 hrs, SID 90780): 63.3%
6555 Remain (%) ([1]; mM: ascorbate 0, gentisate 0, NAM 0, metabisulfite 5, hydrosulfite 5, pH 5.1, 7 hrs, SID 90783): 66.9%
6555 Remain (%) ([1]; mM: ascorbate 0, gentisate 0, NAM 0, metabisulfite 25, hydrosulfite 0, pH 4.2, 8 hrs, SID 90790): 63.2%
6555 Remain (%) ([1]; mM: ascorbate 5, gentisate 2, NAM 0, metabisulfite 5, hydrosulfite 5, pH 5, 17 hrs, SID 90756): 96.1%
6555 Remain (%) ([1]; mM: ascorbate 5, gentisate 2, NAM 0, metabisulfite 5, hydrosulfite 5, pH 5, 28 hrs, SID 90772): 82.9%
6555 Remain (%) ([1]; mM: ascorbate 5, gentisate 2, NAM 0, metabisulfite 5, hydrosulfite 5, pH 5.2, 7 hrs, SID 90786): 77.4%
6555 Remain (%) ([1]; mM: ascorbate 5, gentisate 2, NAM 0, metabisulfite 5, hydrosulfite 5, pH 5.2, 26 hrs, SID 90845): 96.7%
6555 Remain (%) ([1]; mM: ascorbate 5, gentisate 2, NAM 0, metabisulfite 5, hydrosulfite 5, pH 5.2, 31 hrs, SID 90854): 77.4%
6555 Remain (%) ([1]; mM: ascorbate 5, gentisate 2, NAM 5, metabisulfite 0, hydrosulfite 5, pH 5.0, 18 hrs, SID 90755): 96.2%
6555 Remain (%) ([1]; mM: ascorbate 5, gentisate 2, NAM 5, metabisulfite 0, hydrosulfite 5, pH 5.0, 27 hrs, SID 90771): 85.3%
6555 Remain (%) ([1]; mM: ascorbate 5, gentisate 2, NAM 5, metabisulfite 5, hydrosulfite 0, pH 5.1, 18 hrs, SID 90753): 95.6%
6555 Remain (%) ([1]; mM: ascorbate 5, gentisate 2, NAM 5, metabisulfite 5, hydrosulfite 0, pH 5.1, 27 hrs, SID 90769): 92.8%
IC50 [2]: 870 nM
IC50 (recombinant human FAP): 0.7 nM
6555 Remain (%) ([3]; pH 4, 2 mg/mL): 76.2%
6555 Remain (%) ([3]; pH 5, 2 mg/mL): 70.0%
degradation in aqueous solution [4]: did not observe any sign of degradation
Compound: C[C@@H](NC(=O)c1ccc(CNC(=O)CN2CCN(CC(=O)O)CCN(CC(=O)O)CCN(CC(=O)O)CC2)cc1)C(=O)N1CCC[C@H]1B(O)O [compound 6555, DOTA-aminomethyl-Bz-D-Ala-boroPro]
